These are literature values, as cited in US7834038B2, “Methods for preparing nonpeptidic oligomers from amino acids” (New York University, priority 2005, dated 2010).

Entries after “also recorded” stand apart in the source; their conditions may differ.

This data set deals with HIV-1 protease (Human immunodeficiency virus type 1 group M subtype B, UniProt P04585). Conditions: known inhibitors, statement in words.

For `CC(C)[C@H](NC(=O)OCc1ccccc1)C(=O)N[C@@H](Cc1ccccc1)[C@@H](O)[C@H](Cc1ccccc1)NC(=O)[C@H](NC(=O)OCc1ccccc1)C(C)C` [A-74704], the “inhibition of HIV-1 protease” value is “very high affinities; also recorded: powerful inhibitor”.

Take `O=C(N[C@H]1c2ccccc2C[C@H]1O)[C@H](Cc1ccccc1)CC(O)C[C@@H](Cc1ccccc1)C(=O)N[C@H]1c2ccccc2C[C@H]1O` [L-700,417]: the “inhibition of HIV-1 protease” value was “very high affinities”.
